Test results from ChEMBL document CHEMBL1201862, “PubChem BioAssay data set” (2004).
Active and inactive are the calls of the source.

Legend:
[1] = tested on: P388/ADR; test: cells; format: functional; details: Mus musculus
[2] = tested on: SN12K1; test: cells; format: functional; details: Homo sapiens
[3] = tested on: P388; test: cells; format: functional; details: Mus musculus
[4] = molecular target: T1, Calpain-2 catalytic subunit (Sus scrofa, UniProt P43367); test: pig calpain II inhibitor potency, dose response, biochemical, fluorogenic peptide substrate (AID 1420); format: functional
T1 sequence (P43367 whole entry): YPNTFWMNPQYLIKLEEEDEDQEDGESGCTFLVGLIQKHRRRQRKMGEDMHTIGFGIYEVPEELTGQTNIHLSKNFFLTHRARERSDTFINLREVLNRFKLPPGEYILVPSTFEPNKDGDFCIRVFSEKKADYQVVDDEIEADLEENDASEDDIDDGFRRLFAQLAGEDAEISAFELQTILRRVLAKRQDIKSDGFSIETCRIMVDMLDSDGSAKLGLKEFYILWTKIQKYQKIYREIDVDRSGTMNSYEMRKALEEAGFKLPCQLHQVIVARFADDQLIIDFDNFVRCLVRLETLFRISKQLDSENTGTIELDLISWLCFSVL

[5] = molecular target: T2, Heat shock factor protein 1 (Mus musculus, UniProt P38532); test: HSF1 potentiators in luciferase reporter cells, confirmation, cell-based, NIH3T3, luminescence, dose retest (AID 435004); format: functional;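 further: stress induced by proteasome inhibitor MG132 added 30 min after compound; luciferase reporter driven by HSF1 response element in NIH3T3 cells; actives raise luminescence as potentiators of the MG132 stress response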
T2 sequence (P38532 whole entry): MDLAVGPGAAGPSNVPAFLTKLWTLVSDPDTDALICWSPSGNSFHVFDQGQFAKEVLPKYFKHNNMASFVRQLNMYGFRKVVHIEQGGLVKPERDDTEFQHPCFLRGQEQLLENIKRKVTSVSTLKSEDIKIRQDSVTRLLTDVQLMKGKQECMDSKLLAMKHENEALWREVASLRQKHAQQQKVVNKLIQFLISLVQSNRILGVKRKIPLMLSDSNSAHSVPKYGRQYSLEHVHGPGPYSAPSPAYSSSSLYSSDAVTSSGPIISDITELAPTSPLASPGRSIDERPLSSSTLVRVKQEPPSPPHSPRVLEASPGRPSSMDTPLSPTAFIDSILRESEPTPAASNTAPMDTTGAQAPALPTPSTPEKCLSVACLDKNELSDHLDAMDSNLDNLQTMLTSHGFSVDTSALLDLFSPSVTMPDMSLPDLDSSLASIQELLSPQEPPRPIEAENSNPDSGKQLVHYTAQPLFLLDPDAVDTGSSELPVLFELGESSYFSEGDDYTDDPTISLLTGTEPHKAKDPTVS

[6] = tested on: Vero; test: cells; format: functional; details: Chlorocebus sabaeus
[7] = molecular target: T3, Cytochrome P450 1A2 (Homo sapiens, UniProt P05177);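 further: PubChem cytochrome P450 panel assay, CYP1A2 panel member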
T3 sequence (P05177 whole entry): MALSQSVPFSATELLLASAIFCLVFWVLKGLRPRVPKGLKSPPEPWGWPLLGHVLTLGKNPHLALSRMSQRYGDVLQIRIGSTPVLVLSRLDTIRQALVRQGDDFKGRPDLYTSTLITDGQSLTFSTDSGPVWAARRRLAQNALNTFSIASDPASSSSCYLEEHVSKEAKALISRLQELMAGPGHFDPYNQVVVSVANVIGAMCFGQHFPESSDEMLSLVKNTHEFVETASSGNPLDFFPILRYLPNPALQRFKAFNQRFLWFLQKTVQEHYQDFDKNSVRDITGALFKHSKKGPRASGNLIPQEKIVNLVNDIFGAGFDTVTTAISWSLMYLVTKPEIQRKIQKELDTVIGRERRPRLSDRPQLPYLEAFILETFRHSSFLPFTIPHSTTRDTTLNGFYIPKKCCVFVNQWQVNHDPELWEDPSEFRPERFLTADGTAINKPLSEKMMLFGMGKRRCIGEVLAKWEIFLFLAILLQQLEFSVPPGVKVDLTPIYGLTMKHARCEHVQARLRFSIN

[8] = molecular target: Cytochrome P450 2C9 (Homo sapiens, UniProt P11712)
Cytochrome P450 2C9, sequence (P11712 whole entry): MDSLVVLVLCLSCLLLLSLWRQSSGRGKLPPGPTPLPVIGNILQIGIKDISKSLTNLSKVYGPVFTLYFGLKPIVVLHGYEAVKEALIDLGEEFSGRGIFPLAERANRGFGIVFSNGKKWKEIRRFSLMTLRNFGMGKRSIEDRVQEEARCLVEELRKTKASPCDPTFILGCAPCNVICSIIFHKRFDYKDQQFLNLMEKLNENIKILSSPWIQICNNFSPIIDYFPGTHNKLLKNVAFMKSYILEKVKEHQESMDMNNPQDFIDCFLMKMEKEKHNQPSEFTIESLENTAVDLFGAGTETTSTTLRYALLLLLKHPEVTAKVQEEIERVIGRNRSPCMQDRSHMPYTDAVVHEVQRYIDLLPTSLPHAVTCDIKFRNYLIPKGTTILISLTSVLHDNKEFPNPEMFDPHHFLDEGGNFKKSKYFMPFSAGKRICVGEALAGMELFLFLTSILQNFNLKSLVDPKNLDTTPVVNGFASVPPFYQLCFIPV

[9] = molecular target: Cytochrome P450 3A4 (Homo sapiens, UniProt P08684);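 further: CYP3A4 tested as one member of a cytochrome P450 panel screen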
Cytochrome P450 3A4, sequence (P08684 whole entry): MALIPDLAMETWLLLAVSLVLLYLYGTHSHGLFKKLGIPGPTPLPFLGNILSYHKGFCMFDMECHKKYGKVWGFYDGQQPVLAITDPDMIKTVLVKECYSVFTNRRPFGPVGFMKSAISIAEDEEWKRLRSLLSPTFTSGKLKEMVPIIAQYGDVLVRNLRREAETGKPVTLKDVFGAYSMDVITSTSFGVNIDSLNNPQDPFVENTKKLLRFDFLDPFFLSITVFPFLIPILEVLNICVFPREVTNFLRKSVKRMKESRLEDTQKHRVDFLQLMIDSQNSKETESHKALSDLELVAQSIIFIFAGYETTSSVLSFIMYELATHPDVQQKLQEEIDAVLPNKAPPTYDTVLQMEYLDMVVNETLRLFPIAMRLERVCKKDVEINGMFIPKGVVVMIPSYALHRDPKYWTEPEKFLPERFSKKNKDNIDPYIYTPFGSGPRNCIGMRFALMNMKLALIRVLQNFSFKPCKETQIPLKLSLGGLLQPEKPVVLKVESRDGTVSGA

[10] = Luminescence Cell-Based Dose Retest to Confirm Inhibitors of Cancer Stem Cells. [Related pubchem assays (depositor defined):AID2717, AID2721]; format: functional; details: Homo sapiens
[11] = molecular target: Paired box protein Pax-8 (Homo sapiens, UniProt Q06710); test: inhibitors of PAX8-driven TPO luciferase reporter, dose response, RMG-I cells, cherry-pick (AID 687027); format: functional, cell-based;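 further: luciferase reporter driven by Pax8 target thyroperoxidase promoter measured by SteadyGlo luminescence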
Paired box protein Pax-8, sequence (Q06710 whole entry): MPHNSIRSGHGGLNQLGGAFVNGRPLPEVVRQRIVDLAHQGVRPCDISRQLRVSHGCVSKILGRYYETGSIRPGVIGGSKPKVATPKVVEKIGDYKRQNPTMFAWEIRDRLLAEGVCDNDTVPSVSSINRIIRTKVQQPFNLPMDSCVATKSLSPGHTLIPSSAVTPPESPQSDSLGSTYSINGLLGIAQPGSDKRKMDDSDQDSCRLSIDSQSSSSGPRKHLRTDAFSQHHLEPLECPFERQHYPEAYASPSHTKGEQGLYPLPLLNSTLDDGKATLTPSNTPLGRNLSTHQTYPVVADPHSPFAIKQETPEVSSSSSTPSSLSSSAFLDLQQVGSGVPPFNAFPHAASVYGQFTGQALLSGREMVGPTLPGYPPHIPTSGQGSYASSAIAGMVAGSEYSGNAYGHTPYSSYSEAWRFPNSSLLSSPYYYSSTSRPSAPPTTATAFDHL

[12] = molecular target: Cytochrome P450 2C19 (Homo sapiens, UniProt P33261); test: Cytochrome panel assay with activity outcomes. Panel member name: p450-cyp2c19 Compounds with AC50 equal or less than 10 uM are considered active; format: functional; details: read-out: AC50
Cytochrome P450 2C19, sequence (P33261 whole entry): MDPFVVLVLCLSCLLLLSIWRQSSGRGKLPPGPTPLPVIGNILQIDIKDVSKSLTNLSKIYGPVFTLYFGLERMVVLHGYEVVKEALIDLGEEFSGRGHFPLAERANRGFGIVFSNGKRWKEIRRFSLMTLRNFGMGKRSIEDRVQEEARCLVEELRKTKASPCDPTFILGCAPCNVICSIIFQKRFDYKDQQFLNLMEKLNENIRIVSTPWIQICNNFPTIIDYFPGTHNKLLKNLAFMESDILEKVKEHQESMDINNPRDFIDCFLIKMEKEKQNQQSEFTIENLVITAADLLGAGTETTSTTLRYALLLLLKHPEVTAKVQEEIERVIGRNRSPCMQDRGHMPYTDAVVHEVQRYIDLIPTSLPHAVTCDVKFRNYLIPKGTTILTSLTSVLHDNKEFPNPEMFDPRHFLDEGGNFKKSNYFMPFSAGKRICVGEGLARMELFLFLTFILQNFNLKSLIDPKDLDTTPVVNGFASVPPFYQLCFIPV

[13] = growth suppression of PTEN-null colon cells, dose response, cell-based, HCT116 PTEN knockout (AID 1047); format: functional;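 further: HCT116 colon tumor cells with PTEN knocked out; cells exposed to compound for 60 hours before readout; potency for loss of cell viability measured by luminescence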
[14] = growth suppression of beta-catenin-knockout colon cells, dose response, cell-based, HCT116, human colon tumor (AID 1045); format: functional;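 further: HCT116 colon tumor cells with beta catenin knocked out; cells exposed to compound for 60 hours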
[15] = cytotoxicity in HEK-293T cells, dose response, cytotoxicity control for TCR NF-kB inhibitor project, luminescence, T-cell screen hits (AID 489026); format: functional, cell-based;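 further: cells exposed to compound about 14 hours before the viability readout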
[16] = tested on: INS1; test: beta cell apoptosis inhibitors, cytokine rescue, dose response, luminescence, retest (AID 449756); format: functional, cell-based; details: Rattus norvegicus, INS1;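 further: cell death triggered by IL-1 beta plus TNF-alpha plus IFN-gamma mixture; protective hits raise ATP signal compared with cytokine alone wells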
[17] = molecular target: T4, Probable nicotinate-nucleotide adenylyltransferase (Staphylococcus aureus (strain N315), UniProt P65502); format: functional, Staphylococcus aureus subsp. aureus N315;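 on IC50 Mean: confirmatory dose-response retesting of NadD inhibitor hits first found in an ultra-high-throughput screen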
T4 sequence (P65502 whole entry): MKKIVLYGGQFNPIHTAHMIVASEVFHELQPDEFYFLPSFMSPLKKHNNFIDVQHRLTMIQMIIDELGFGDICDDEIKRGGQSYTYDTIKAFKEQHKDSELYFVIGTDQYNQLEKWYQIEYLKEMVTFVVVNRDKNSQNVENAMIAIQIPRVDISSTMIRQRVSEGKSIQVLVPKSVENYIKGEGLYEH

[18] = molecular target: T4, Probable nicotinate-nucleotide adenylyltransferase; format: functional, Staphylococcus aureus subsp. aureus N315; details: read-out: IC50_Mean
[19] = inhibitors of firefly luciferase expression or activity, dose response, H4 neuroglioma cells, luminescence (AID 1990); format: functional, cell-based
[20] = Luminescence Cell-Based Dose Response HTS to Identify Inhibitors of 5'UTR Stem-Loop Driven Prion Protein mRNA Translation in H4 Neuroglioblastoma Cells. [Related pubchem assays: 1827 (Project Summary), 1813 (Primary HTS)]; format: functional
[21] = inhibitors of SNCA 5'UTR-driven reporter translation, confirmation, H4 neuroglioma cells, luminescence (AID 1988); format: functional, cell-based
[22] = molecular target: FAD-linked sulfhydryl oxidase ALR (Homo sapiens, UniProt P55789); test: inhibitors of human ALR sulfhydryl oxidase, dose response, biochemical, H2O2 detection, luminescence, cherry-pick (AID 493248)
FAD-linked sulfhydryl oxidase ALR, sequence (P55789 whole entry): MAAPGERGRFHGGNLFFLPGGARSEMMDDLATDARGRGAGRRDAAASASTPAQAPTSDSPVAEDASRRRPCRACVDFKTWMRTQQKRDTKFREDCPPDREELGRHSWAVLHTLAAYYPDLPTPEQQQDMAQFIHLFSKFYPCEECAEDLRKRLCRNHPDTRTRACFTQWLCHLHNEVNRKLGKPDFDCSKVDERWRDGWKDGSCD

[23] = tested on: Streptococcus sp. 'group A'; test: growth inhibition of control SK(-) GAS strain, dose response, counter-screen for streptokinase expression inhibitor project, luminescence, kanamycin, BacTiterGlo, confirmation (AID 1900); format: functional, organism-based
[24] = tested on: Streptococcus; test: Group A Streptococcus viability loss, dose response, counter-screen for streptokinase expression inhibitor project, luminescence, BacTiterGlo (AID 1915); format: functional, organism-based;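 further: potency for reduction of bacterial viability or growth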
[25] = molecular target: Cytochrome P450 2D6 (Homo sapiens, UniProt P10635);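 further: CYP2D6 member of a cytochrome P450 panel assay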
Cytochrome P450 2D6, sequence (P10635 whole entry): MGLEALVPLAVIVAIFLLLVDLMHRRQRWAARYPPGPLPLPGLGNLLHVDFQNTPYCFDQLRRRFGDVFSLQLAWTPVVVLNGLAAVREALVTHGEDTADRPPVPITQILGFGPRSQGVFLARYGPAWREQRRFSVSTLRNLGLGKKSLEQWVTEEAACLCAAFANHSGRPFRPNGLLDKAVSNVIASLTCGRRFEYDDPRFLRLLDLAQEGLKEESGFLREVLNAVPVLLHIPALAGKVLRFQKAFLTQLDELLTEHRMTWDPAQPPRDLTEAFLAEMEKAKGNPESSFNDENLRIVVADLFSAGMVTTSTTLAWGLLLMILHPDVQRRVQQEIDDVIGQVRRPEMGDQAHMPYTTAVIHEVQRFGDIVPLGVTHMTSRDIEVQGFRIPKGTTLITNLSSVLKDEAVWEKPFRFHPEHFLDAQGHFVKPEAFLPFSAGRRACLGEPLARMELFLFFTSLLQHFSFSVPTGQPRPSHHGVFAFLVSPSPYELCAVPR

With `C[C@@H]1C[C@]2(C[C@@H](C)[C@H]3C(C[C@@]4(C)CCC[C@@H]5C6=C[C@H](CCC34C)OC6=CC(=O)OC5(C)C)O2)OC1=O` (stereo not given in full) the GI50 [1] was > 51.5 µM (inactive), the GI50 [2] was > 51.5 µM (inactive) and the GI50 [3] was > 51.5 µM (inactive).
With `C[S+]([O-])c1ccccc1-c1nc(-c2cccc(Cl)c2)no1` (stereo not given) the IC50 [4] was > 50 µM (not active).
For `CC1(C)CC(=O)C2=C(C1)N1C(=C(C#N)C2c2ccc(Cl)cc2)N=C(N)c2ccccc21` (stereo not given), the EC50 [5] was > 260 µM (inactive) and the CC50 [6] was > 25 µM (active).
In the case of `CNc1nc(C)cc(C)c1S(=O)(=O)c1ccc(Cl)cc1`, the AC50 [7] is reported as 28.2 µM (inconclusive) and the AC50 [8] is reported as “inconclusive”.
In the case of `Cc1cc(C)cc(C(=N)c2ccccc2Cc2cccc3ccccc23)c1`, the AC50 [9] is reported as 2.51 µM (inconclusive) and the AC50 [8] is reported as “inconclusive”.
With `Cc1cn(C2CC(O)C(CO)O2)c(=O)[nH]c1=O` (stereo not given) the GI50 [1] was 91.8 µM (inactive), the GI50 [2] was 857 µM (inactive) and the GI50 [3] was 57.4 µM (inactive).
In the case of `CCCCCCCCCC[S+]([O-])CC(CO)NC(=O)/C=C/c1c(C)nc(O)nc1O` (stereo not given), the GI50 [1] is reported as 2.25 µM (inactive), the GI50 [2] is reported as 0.612 µM (active) and the GI50 [3] is reported as 0.0443 µM (active).
For `COc1ccccc1-c1cc(NCc2ccccc2)ncn1`, the AC50 [8] was “inconclusive”.
With `CCOC(=O)N1CCN(C(=O)c2ccc(NS(C)(=O)=O)cc2)CC1` the IC50 [4] was > 50 µM (not active).
For `CCCCC(=O)N/N=C(\C)CC(=O)Nc1cc(Cl)ccc1OC`, the AC50 [7] was 12.6 µM (inconclusive) and the AC50 [8] was “inconclusive”.
With `CCSc1nnc(NC(=O)NC(CC)(C(F)(F)F)C(F)(F)F)s1` the AC50 [10] was 7.03 µM (active) and the CC50 [6] was 16.5 µM (active).
With `CN(N=Nc1[nH]cnc1C(N)=O)C1CCCCC1` the AC50 [11] was 6.78 µM (active).
With `CCSc1nnc(NC(=O)c2cccs2)s1` the IC50 [4] was 15 µM (not active).
With `COc1cc(NCc2ccc3nc(N)nc(N)c3c2C)cc(OC)c1OC` the GI50 [1] was 0.025 µM (active), the GI50 [2] was 0.025 µM (active) and the GI50 [3] was 0.025 µM (active).
With `Cc1cccc(C(=O)ON=C(N)c2cccc([N+](=O)[O-])c2)c1` the AC50 [12] was 7.08 µM (inconclusive), the AC50 [9] was 17.8 µM (inconclusive) and the AC50 [8] was “inconclusive”.
With `O=C(COc1ccc(F)cc1)NN1C(=O)CSC1=S` the IC50 [4] was 1.42 µM (not active).
With `CCOc1cc(/C=N/n2cnnc2)ccc1OS(=O)(=O)c1ccccc1` the IC50 [4] was > 50 µM (not active).
In the case of `N#CC1=C(N)OC2=C(CC/C2=C\c2ccccc2Cl)C1c1ccccc1Cl` (stereo not given), the EC50 [13] is reported as 21.1 µM (active), the EC50 [14] is reported as 18.3 µM (active) and the CC50 [6] is reported as 22 µM (active).
With `NNC(=O)Cc1cccnc1` the AC50 [7] was 0.631 µM (inconclusive) and the AC50 [8] was “inconclusive”.
For `COc1ccc(C(=O)N2CCN(c3ccc([N+](=O)[O-])c(NCCc4ccc(OC)c(OC)c4)c3)CC2)cc1`, the IC50 [15] was > 80 µM (inactive) and the AC50 [16] was 2.53 µM (active).
For `Cc1ccc(C)c2sc(NC(=O)c3ccc(N4CCCCC4)c([N+](=O)[O-])c3)nc12`, the AC50 [9] was 3.98 µM (inconclusive) and the AC50 [8] was “inconclusive”.
For `O=S(=O)(NC(=Nc1ccc(Cl)c(S(=O)(=O)Nc2ccccc2Cl)c1)c1ccc(F)cc1)c1ccccc1`, the IC50 [17] was 13.7 µM (active) and the IC50 [18] was 80 µM (inactive).
For `CC(C(=O)O)c1cnn(-c2ccccc2)c1-n1cccc1` (stereo not given), the GI50 [1] was > 100 µM (inactive), the GI50 [2] was > 100 µM (inactive) and the GI50 [3] was > 100 µM (inactive).
With `COc1cc(Cn2c(-c3nonc3N)nc3ccccc32)ccc1C` the EC50 [19] was 9.66 µM (inconclusive), the EC50 [20] was 10.3 µM (active) and the EC50 [21] was 7.81 µM (active). For the same compound, the IC50 [15] was > 80 µM (inactive).
With `CCc1ccc(N2C(=O)C(Cl)=C(Nc3ccc(C(=O)N4CCCC4)cc3)C2=O)cc1` the IC50 [15] was > 80 µM (inactive).
In the case of `CC(C)Nc1ccc(C(CC(N)=O)NC(=O)Cc2ccc(Br)cc2)cc1[N+](=O)[O-]` (stereo not given), the IC50 [15] is reported as > 80 µM (inactive).
In the case of `CC1=NN(C(=O)c2ccc(C)cc2)C(=O)C1/N=N/c1ccccc1C(=O)O` (stereo not given), the GI50 [1] is reported as > 100 µM (inactive), the GI50 [2] is reported as > 100 µM (inactive) and the GI50 [3] is reported as 17.5 µM (inactive).
With `COC(=O)CNC(=O)c1sc2ncn(CC(=O)Nc3ccc(C)c(Cl)c3)c(=O)c2c1C` the IC50 [4] was 1.82 µM (not active).
In the case of `O=C1C(CO)=C[C@H](O)[C@H]2O[C@@H]12`, the GI50 [1] is reported as 29.9 µM (inactive), the GI50 [2] is reported as 116 µM (inactive) and the GI50 [3] is reported as 38.9 µM (inactive).
With `CCCCOc1ccc(C(=O)OC(C)CN(C)C)cc1` (stereo not given) the IC50 [4] was > 50 µM (not active).
In the case of `Cc1[nH]c2ccc(-c3nnc(S)n3C)cc2c1C`, the EC50 [19] is reported as 8.15 µM (active), the EC50 [20] is reported as 19.2 µM (active) and the EC50 [21] is reported as 14 µM (active). For the same compound, the AC50 [22] was 664 nM (active).
In the case of `CC(C)(C)c1ccc(C(=O)NNC(=S)NC(=O)c2cccnc2)cc1`, the EC50 [19] is reported as 14.4 µM (active), the EC50 [23] is reported as 470 nM (active) and the EC50 [20] is reported as 18.2 µM (active). The EC50 [21] was 10.8 µM (active), the EC50 [24] was 2.42 µM (active) and the CC50 [6] was > 25 µM (active).
With `CCN(CC)c1ccc(/C=N/Nc2nc(C)cc(O)n2)cc1` the AC50 [22] was 456 nM (active), the AC50 [12] was 22.4 µM (inconclusive) and the AC50 [25] was 12.6 µM (inconclusive). For the same compound, the AC50 [7] was 25.1 µM (inconclusive) and the AC50 [8] was “inconclusive”.
In the case of `Cc1cccc(-n2nc3c(c2NC(=O)c2ccc(Br)o2)CSC3)c1`, the IC50 [17] is reported as 4.58 µM (active) and the IC50 [18] is reported as 17.5 µM (active).
For `CSc1cc(=O)n2c3ccccc3c3ccnc1c32`, the GI50 [1] was > 100 µM (inactive), the GI50 [2] was 81.5 µM (inactive) and the GI50 [3] was > 100 µM (inactive).
